Laboratory results: patent EP0326329B1, “Quinazoline derivatives useful as insecticides” (Dow AgroSciences LLC, priority 1988, dated 1989)
Where two headings read alike, the source gives them in different places.

Columns and labels:
Assay type in all cases: in vivo
[1] = test system: Southern corn rootworm (Diabrotica undecimpuctata howardi Barber); assay: Mite/insect screen, soil treatment (CRW); details: percent mortality, soil treatment; for mortality at 12 ppm / mortality at 24 ppm: Diabrotica, read-out: CRW RESULTS %
Summary of the method: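 Compounds dissolved in acetone/alcohol (50:50) with Toximul R/S emulsifiers, diluted with water. Soil (15 g, with presoaked corn seed) treated with 1 mL test solution, dried 6–12 h, then five 2–3 instar larvae added; held at 23°C. Percent mortality and phytotoxicity scored after standard exposure periods.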

[2] = test system: southern armyworm (Spodopetra eridania Cramer); assay: Mite/insect screen, sprayed squash leaves (SAW); details: percent mortality; for mortality at 200 ppm / mortality at 400 ppm: Spodoptera eridania, read-out: SAW RESULTS %
Summary of the method: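 Compounds were dissolved in 50:50 acetone/alcohol containing sulfonate/nonionic emulsifier blends (23 g and 13 g per liter) and diluted with water to test concentrations. Leaves were sprayed on both surfaces to runoff and dried for one hour. Percent mortality and phytotoxicity were scored after standard exposure periods.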

[3] = test system: Botrytis cinerea (gray mold); assay: Greenhouse Test 1, foliar spray fungicide screen (GRAY MOLD), host grape berries; details: disease control rating, 400 ppm (+++ at 100 ppm)
[4] = test system: Pyricularia oryzae (rice blast); details: disease control rating, foliar spray, host rice; 400 ppm (+++ at 100 ppm)
[5] = test system: Puccinia recondita tritici (leaf rust); assay: Greenhouse Test 1, foliar spray fungicide screen (LEAF RUST), host wheat; details: disease control rating, 400 ppm (+++ at 100 ppm)
[6] = test system: melon aphids (Aphis gossypii Glover); assay: Mite/insect screen, sprayed squash cotyledons (MA); details: percent mortality; for mortality at 200 ppm / mortality at 400 ppm: Aphis gossypii, read-out: MA RESULTS %
Summary of the method: (§1)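 Water-diluted formulations of each compound (acetone/alcohol 50:50 with 23 g/L and 13 g/L emulsifier blends) are sprayed over both leaf faces to runoff. After a standard exposure period, percent kill and phytotoxicity are recorded.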

[7] = test system: Pseudoperonospora cubensis (downy mildew); assay: Greenhouse Test 1, foliar spray fungicide screen (DOWN MDEW), host squash; details: disease control rating, 400 ppm (+++ at 100 ppm)
[8] = test system: Erysiphe graminis tritici (powdery mildew); assay: Greenhouse Test 1, foliar spray fungicide screen (POWD MDEW), host wheat; details: disease control rating, 400 ppm (+++ at 100 ppm)
[9] = test system: Twospotted spider mites (Tetranychus urticae Koch); assay: Mite/insect screen, sprayed squash cotyledons (SM); details: percent mortality; for mortality at 200 ppm / mortality at 400 ppm: Tetranychus urticae, read-out: SM RESULTS %
Summary of the method: as §1

[10] = corn rootworm, CRW RATE 24.00 PPM
[11] = Southern armyworm, sprayed squash leaves, RATE 400 PPM
[12] = melon aphids, sprayed squash cotyledons, RATE 400 PPM
[13] = twospotted spider mites, sprayed squash cotyledons, RATE 400 PPM
[14] = corn rootworm, CRW RATE 12.00 PPM
[15] = Southern armyworm, sprayed squash leaves, RATE 200 PPM
[16] = melon aphids, sprayed squash cotyledons, RATE 200 PPM
[17] = twospotted spider mites, sprayed squash cotyledons, RATE 200 PPM

CC(C)(C)c1ccc(CCOc2ncnc3c(Cl)cccc23)cc1 [Example 185, 8-chloro-4-[2-[4-(t-butyl)phenyl]ethoxy]quinazoline]
mortality at 12 ppm ([1]; CRW rate 12.00 ppm): 0%
mortality at 24 ppm ([1]; CRW rate 24.00 ppm): 0%
mortality at 200 ppm ([2]; spray rate 200 ppm): 0%
mortality at 400 ppm ([2]; spray rate 400 ppm): 0%
GRAY MOLD [3]: - (- = 0-19% control at 400 ppm)
RICE BLAST [4]: ++ (++ = 90-100% control at 400 ppm)
LEAF RUST [5]: + (+ = 20-89% control at 400 ppm)
mortality at 200 ppm ([6]; spray rate 200 ppm): 50%
mortality at 400 ppm ([6]; spray rate 400 ppm): 30%
DOWN MDEW [7]: ++ (++ = 90-100% control at 400 ppm)
POWD MDEW [8]: + (+ = 20-89% control at 400 ppm)
mortality at 200 ppm ([9]; spray rate 200 ppm): 80%
mortality at 400 ppm ([9]; spray rate 400 ppm): 30%

CC(COc1ncnc2ccccc12)c1ccc(-c2ccccc2)cc1 (stereo not drawn) [Example 187, 4-[2-(1,1'-biphenyl)-4-ylpropoxy]quinazoline]
mortality at 12 ppm ([1]; CRW rate 12.00 ppm): 0%
mortality at 24 ppm ([1]; CRW rate 24.00 ppm): 0%
mortality at 200 ppm ([2]; spray rate 200 ppm): 0%
mortality at 400 ppm ([2]; spray rate 400 ppm): 0%
GRAY MOLD [3]: - (- = 0-19% control at 400 ppm)
RICE BLAST [4]: +++ (+++ = 90-100% control at 100 ppm)
LEAF RUST [5]: + (+ = 20-89% control at 400 ppm)
mortality at 200 ppm ([6]; spray rate 200 ppm): 0%
mortality at 400 ppm ([6]; spray rate 400 ppm): 0%
DOWN MDEW [7]: + (+ = 20-89% control at 400 ppm)
POWD MDEW [8]: - (- = 0-19% control at 400 ppm)
mortality at 200 ppm ([9]; spray rate 200 ppm): 0%
mortality at 400 ppm ([9]; spray rate 400 ppm): 0%

FC(F)(F)c1cccc(Oc2ccc(CCOc3ncnc4ccccc34)cc2)c1 [Example 188, 4-[2-[4-[3-(trifluoromethyl)phenoxy]phenyl]ethoxy]quinazoline]
mortality at 12 ppm ([1]; CRW rate 12.00 ppm): 0%
mortality at 24 ppm ([1]; CRW rate 24.00 ppm): 100%
mortality at 200 ppm ([2]; spray rate 200 ppm): 0%
mortality at 400 ppm ([2]; spray rate 400 ppm): 80%
GRAY MOLD [3]: - (- = 0-19% control at 400 ppm)
RICE BLAST [4]: +++ (+++ = 90-100% control at 100 ppm)
LEAF RUST [5]: +++ (+++ = 90-100% control at 100 ppm)
mortality at 200 ppm ([6]; spray rate 200 ppm): 100%
mortality at 400 ppm ([6]; spray rate 400 ppm): 80%
DOWN MDEW [7]: +++ (+++ = 90-100% control at 100 ppm)
POWD MDEW [8]: +++ (+++ = 90-100% control at 100 ppm)
mortality at 200 ppm ([9]; spray rate 200 ppm): 100%

Cc1ccc2ncnc(NCCc3cccc(Oc4ccccc4)c3)c2c1 [Example 190, 6-methyl-N-[2-(3-phenoxyphenyl)ethyl]-4-quinazolinamine]
mortality at 12 ppm ([1]; CRW rate 12.00 ppm): 0%
mortality at 24 ppm ([1]; CRW rate 24.00 ppm): 0%
mortality at 200 ppm ([2]; spray rate 200 ppm): 0%
mortality at 400 ppm ([2]; spray rate 400 ppm): 0%
GRAY MOLD [3]: - (- = 0-19% control at 400 ppm)
RICE BLAST [4]: +++ (+++ = 90-100% control at 100 ppm)
LEAF RUST [5]: +++ (+++ = 90-100% control at 100 ppm)
mortality at 200 ppm ([6]; spray rate 200 ppm): 40%
mortality at 400 ppm ([6]; spray rate 400 ppm): 0%
DOWN MDEW [7]: +++ (+++ = 90-100% control at 100 ppm)
POWD MDEW [8]: +++ (+++ = 90-100% control at 100 ppm)
mortality at 200 ppm ([9]; spray rate 200 ppm): 80%
mortality at 400 ppm ([9]; spray rate 400 ppm): 0%

CC(C)c1ccccc1CCOc1ncnc2c(F)cccc12 [Example 195, 8-fluoro-4-[2-[2-(i-propyl)phenyl]ethoxy]quinazoline]
mortality at 12 ppm ([1]; CRW rate 12.00 ppm): 0%
mortality at 24 ppm ([1]; CRW rate 24.00 ppm): 0%
mortality at 200 ppm ([2]; spray rate 200 ppm): 0%
mortality at 400 ppm ([2]; spray rate 400 ppm): 0%
GRAY MOLD [3]: - (- = 0-19% control at 400 ppm)
RICE BLAST [4]: +++ (+++ = 90-100% control at 100 ppm)
LEAF RUST [5]: +++ (+++ = 90-100% control at 100 ppm)
mortality at 200 ppm ([6]; spray rate 200 ppm): 80%
mortality at 400 ppm ([6]; spray rate 400 ppm): 0%
DOWN MDEW [7]: ++ (++ = 90-100% control at 400 ppm)
POWD MDEW [8]: +++ (+++ = 90-100% control at 100 ppm)
mortality at 200 ppm ([9]; spray rate 200 ppm): 0%
mortality at 400 ppm ([9]; spray rate 400 ppm): 0%

FC(F)(F)c1cccc(CCCOc2ncnc3ccccc23)c1 [Example 196, 4-[3-(3-trifluoromethylphenyl)propoxy]quinazoline]
mortality at 12 ppm ([1]; CRW rate 12.00 ppm): 0%
mortality at 24 ppm ([1]; CRW rate 24.00 ppm): 0%
mortality at 200 ppm ([2]; spray rate 200 ppm): 0%
mortality at 400 ppm ([2]; spray rate 400 ppm): 0%
GRAY MOLD [3]: - (- = 0-19% control at 400 ppm)
RICE BLAST [4]: - (- = 0-19% control at 400 ppm)
LEAF RUST [5]: - (- = 0-19% control at 400 ppm)
mortality at 200 ppm ([6]; spray rate 200 ppm): 0%
mortality at 400 ppm ([6]; spray rate 400 ppm): 0%
DOWN MDEW [7]: - (- = 0-19% control at 400 ppm)
POWD MDEW [8]: ++ (++ = 90-100% control at 400 ppm)
mortality at 200 ppm ([9]; spray rate 200 ppm): 0%
mortality at 400 ppm ([9]; spray rate 400 ppm): 0%

CCC(COc1ncnc2c(F)cccc12)c1ccc(-c2ccccc2)cc1 (stereo not drawn) [Example 197, 8-fluoro-4-[2-(1,1'-biphenyl)-4-ylbutoxy)quinazoline]
mortality at 12 ppm ([1]; CRW rate 12.00 ppm): 0%
mortality at 24 ppm ([1]; CRW rate 24.00 ppm): 0%
mortality at 200 ppm ([2]; spray rate 200 ppm): 0%
mortality at 400 ppm ([2]; spray rate 400 ppm): 0%
GRAY MOLD [3]: - (- = 0-19% control at 400 ppm)
RICE BLAST [4]: + (+ = 20-89% control at 400 ppm)
LEAF RUST [5]: - (- = 0-19% control at 400 ppm)
mortality at 200 ppm ([6]; spray rate 200 ppm): 80%
mortality at 400 ppm ([6]; spray rate 400 ppm): 0%
DOWN MDEW [7]: - (- = 0-19% control at 400 ppm)
POWD MDEW [8]: + (+ = 20-89% control at 400 ppm)
mortality at 200 ppm ([9]; spray rate 200 ppm): 80%
mortality at 400 ppm ([9]; spray rate 400 ppm): 0%

Fc1ccccc1Oc1ccc(CCOc2ncnc3c(F)cccc23)cc1 [Example 198, 8-fluoro-4-[2-[4-(2-fluorophenoxy)phenyl]ethoxy]quinazoline]
mortality at 24 ppm [1, 10]: 0%
mortality at 12 ppm ([1]; CRW rate 12.00 ppm): 0%
mortality at 400 ppm [2, 11]: 100%
mortality at 200 ppm ([2]; spray rate 200 ppm): 100%
GRAY MOLD [3]: - (- = 0-19% control at 400 ppm)
RICE BLAST [4]: +++ (+++ = 90-100% control at 100 ppm)
LEAF RUST [5]: +++ (+++ = 90-100% control at 100 ppm)
mortality at 400 ppm [6, 12]: 0%
mortality at 200 ppm ([6]; spray rate 200 ppm): 100%
DOWN MDEW [7]: +++ (+++ = 90-100% control at 100 ppm)
POWD MDEW [8]: +++ (+++ = 90-100% control at 100 ppm)
mortality at 400 ppm [9, 13]: 0%
mortality at 200 ppm ([9]; spray rate 200 ppm): 100%

CC(COc1ncnc2c(F)cccc12)c1ccc(-c2ccccc2)cc1 (stereo not drawn) [Example 199, 8-fluoro-4-[2-(1,1'-biphenyl)4-ylpropoxy]quinazoline]
mortality at 12 ppm [1, 14]: 0%
mortality at 24 ppm [1, 10]: 0%
mortality at 200 ppm [2, 15]: 0%
mortality at 400 ppm [2, 11]: 60%
GRAY MOLD [3]: - (- = 0-19% control at 400 ppm)
RICE BLAST [4]: + (+ = 20-89% control at 400 ppm)
LEAF RUST [5]: +++ (+++ = 90-100% control at 100 ppm)
mortality at 200 ppm [6, 16]: 100%
mortality at 400 ppm [6, 12]: 0%
DOWN MDEW [7]: + (+ = 20-89% control at 400 ppm)
POWD MDEW [8]: +++ (+++ = 90-100% control at 100 ppm)
mortality at 200 ppm [9, 17]: 100%
mortality at 400 ppm [9, 13]: 0%

CC(C)(C)c1ccc(CCCCOc2ncnc3c(F)cccc23)cc1 [Example 200, 8-fluoro-4-[4-[4-(t-butyl)phenyl]butoxy]quinazoline]
mortality at 12 ppm [1, 14]: 100%
mortality at 24 ppm [1, 10]: 100%
mortality at 200 ppm [2, 15]: 0%
mortality at 400 ppm [2, 11]: 0%
GRAY MOLD [3]: - (- = 0-19% control at 400 ppm)
RICE BLAST [4]: +++ (+++ = 90-100% control at 100 ppm)
LEAF RUST [5]: + (+ = 20-89% control at 400 ppm)
mortality at 200 ppm [6, 16]: 60%
mortality at 400 ppm [6, 12]: 80%
DOWN MDEW [7]: +++ (+++ = 90-100% control at 100 ppm)
POWD MDEW [8]: +++ (+++ = 90-100% control at 100 ppm)
mortality at 200 ppm [9, 17]: 80%
mortality at 400 ppm [9, 13]: 100%

[3-(3-methoxyphenyl)propyl]quinazoline [Example 72]
CRW RESULTS % ([1]; CRW rate 24.00 ppm): 0%
SAW RESULTS % ([2]; spray rate 400 ppm): 100%
GRAY MOLD [3]: - (- = 0-19% control at 400 ppm)
RICE BLAST [4]: + (+ = 20-89% control at 400 ppm)
LEAF RUST [5]: +++ (+++ = 90-100% control at 100 ppm)
MA RESULTS % ([6]; spray rate 400 ppm): 0%
DOWN MDEW [7]: ++ (++ = 90-100% control at 400 ppm)
POWD MDEW [8]: ++ (++ = 90-100% control at 400 ppm)
SM RESULTS % ([9]; spray rate 400 ppm): 0%
